Columns and labels:
Assay in all cases: combination Emax (second highest fraction inhibited in the dose matrix, 72 h); higher = more inhibition; extreme values may be limits of the assay
[1] = tested on: LNZTA3WT4 (Low Grade Glioma)
How it was run: (§1)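 Cell lines grown in DMEM/F12 or RPMI with 10% FBS were plated in 1536-well plates and held 24 hours at 37°C, 5% CO2 before 72 hours of exposure to two-drug dose matrices, with DMSO typically at 0.2%. CellTiter-Glo 2.0 luminescence gave viability, which was converted to inhibition. Vehicle wells were set to 0 and blank wells to 1. Combination Emax is the second-highest inhibition in the matrix, and Bliss excess is the observed combination effect minus the expected EA + EB − EA·EB, where EA and EB are the single-agent effects.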

[2] = tested on: ESS-1 (Other Solid Carcinomas)
How it was run: as §1

GAMG (Glioblastoma) = tested on: GAMG (Glioblastoma)
How it was run: as §1

[3] = tested on: SNU-16 (Gastric Carcinoma)
How it was run: as §1

[4] = tested on: KYAE-1 (Esophageal Adenocarcinoma)
How it was run: as §1

[5] = tested on: SW1710 (Bladder Carcinoma)
How it was run: as §1

KS-1 (Glioblastoma) = tested on: KS-1 (Glioblastoma)
How it was run: as §1

[6] = tested on: HuCCT1 (Biliary Tract Carcinoma)
How it was run: as §1

[7] = tested on: BE-13 (T-Lymphoblastic Leukemia)
How it was run: as §1

MPP-89 (Mesothelioma) = tested on: MPP-89 (Mesothelioma)
How it was run: as §1

[8] = tested on: OVCAR-5 (Ovarian Carcinoma)
How it was run: as §1

[9] = tested on: LS-123 (Colorectal Carcinoma)
How it was run: as §1

NCI-H2052 (Mesothelioma) = tested on: NCI-H2052 (Mesothelioma)
How it was run: as §1

[10] = tested on: BFTC-909 (Kidney Carcinoma)
How it was run: as §1

Row | Structure (SMILES) | combination Emax [1] | combination Emax [2] | combination Emax (GAMG (Glioblastoma)) | combination Emax [3] | combination Emax [4] | combination Emax [5] | combination Emax (KS-1 (Glioblastoma)) | combination Emax [6] | combination Emax [7] | combination Emax (MPP-89 (Mesothelioma)) | combination Emax [8] | combination Emax [9] | combination Emax (NCI-H2052 (Mesothelioma)) | combination Emax [10]
1 | C=CCn1c(=O)c2cnc(Nc3ccc(N4CCN(C)CC4)cc3)nc2n1-c1cccc(C(C)(C)O)n1 [AZD1775] + CCc1c2c(nc3ccc(O)cc13)-c1cc3c(c(=O)n1C2)COC(=O)[C@]3(O)CC [SN-38] (first compound max 1 µM, partner max 0.3 µM) | 0.802 | 1 | 0.916 | 0.989 | 0.267 | 0.533 | 0.52 | 0.809 | 1 | 0.769 | 0.77 | 0.828 |  | 
2 | C=CCn1c(=O)c2cnc(Nc3ccc(N4CCN(C)CC4)cc3)nc2n1-c1cccc(C(C)(C)O)n1 [AZD1775] + Nc1ccn([C@@H]2O[C@H](CO)[C@@H](O)C2(F)F)c(=O)n1 [Gemcitabine] (first compound max 1 µM, partner max 0.3 µM) | 0.886 | 1 | 0.805 | 0.998 | 0.316 | 0.755 | 0.5 | 0.805 | 1 | 0.599 | 0.692 | 0.68 |  | 
3 | CN(CCO)CC[C@H](CSc1ccccc1)Nc1ccc(S(=O)(=O)NC(=O)c2ccc(N3CCC([C@@H](O)c4ccccc4-c4ccc(Cl)cc4)CC3)cc2)cc1S(=O)(=O)C(F)(F)F [AZD4320] + CS(=O)(=O)CCNCc1ccc(-c2ccc3ncnc(Nc4ccc(OCc5cccc(F)c5)c(Cl)c4)c3c2)o1 [Lapatinib] (first compound max 1 µM, 7x7, partner max 10 µM) | 0.398 | 0.973 | 0.951 | 0.941 | 0.97 | 0.553 | 0.475 | 0.615 | 1 | 0.746 | 0.896 |  |  | 
4 | Cc1c2c(nn1C)CSCc1cc(n(C)n1)CSc1cc(c3ccccc3c1)OCCCc1c(C(=O)O)n(C)c3c-2c(Cl)ccc13 [AZD5991] + CC(=O)O[C@H]1C(=O)[C@@]2(C)[C@H]([C@H](OC(=O)c3ccccc3)[C@]3(O)C[C@H](OC(=O)[C@H](O)[C@@H](NC(=O)c4ccccc4)c4ccccc4)C(C)=C1C3(C)C)[C@]1(OC(C)=O)CO[C@@H]1C[C@@H]2O [Paclitaxel] (first compound max 1 µM, 7x7, partner max 3 µM) | 0.899 | 1 | 0.999 | 1 | 0.175 | 0.836 | 0.582 | 0.549 | 0.852 | 0.557 | 0.707 | 0.463 |  | 
5 | Cc1c2c(nn1C)CSCc1cc(n(C)n1)CSc1cc(c3ccccc3c1)OCCCc1c(C(=O)O)n(C)c3c-2c(Cl)ccc13 [AZD5991] + Nc1ccn([C@@H]2O[C@H](CO)[C@@H](O)C2(F)F)c(=O)n1 [Gemcitabine] (first compound max 1 µM, 7x7, partner max 0.3 µM) | 0.633 | 0.961 | 0.662 | 1 | 0.127 | 0.397 | 0.288 | 0.506 | 0.923 | 0.428 | 0.422 | 0.404 |  | 
6 | C[C@@H]1COCCN1c1cc(C2([S@](C)(=N)=O)CC2)nc(-c2ccnc3[nH]ccc23)n1 [AZD6738] + C1CC(C1)(C(=O)[O-])C(=O)[O-].N.N.[Pt+2] [Carboplatin] (first compound max 10 µM, 7x7, partner max 10 µM) | 0.806 | 0.98 | 0.611 |  | 0.0812 | 0.429 | 0.431 | 0.683 | 0.737 | 0.42 | 0.75 | 0.626 |  | 
7 | C[C@@H]1COCCN1c1cc(C2([S@](C)(=N)=O)CC2)nc(-c2ccnc3[nH]ccc23)n1 [AZD6738] + Nc1ccn([C@@H]2O[C@H](CO)[C@@H](O)C2(F)F)c(=O)n1 [Gemcitabine] (first compound max 10 µM, 7x7, partner max 0.3 µM) | 0.954 | 1 | 0.87 | 1 | 0.0714 | 0.655 |  | 0.779 | 1 | 0.63 | 0.743 | 0.705 |  | 
8 | C[C@@H](Nc1cc(F)cc(F)c1)c1cc(C(=O)N(C)C)cc2c(=O)cc(N3CCOCC3)oc12 [AZD8186] + CC(=O)c1c(C)c2cnc(Nc3ccc(N4CCNCC4)cn3)nc2n(C2CCCC2)c1=O [Palbociclib] (first compound max 10 µM, 7x7, partner max 10 µM) | 0.478 | 0.552 | 0.723 | 0.639 | 0.11 | 0.585 | 0.428 | 0.479 | 0.62 | 0.317 | 0.55 | 0.478 |  | 
9 | C[C@@H](Oc1cc(-c2cnn(C3CCNCC3)c2)cnc1N)c1c(Cl)ccc(F)c1Cl [Crizotinib] + CC1=C(C(=CC=C1)Cl)NC(=O)C2=CN=C(S2)NC3=CC(=NC(=N3)C)N4CCN(CC4)CCO [Dasatinib] (first compound max 10 µM, 7x7, partner max 2 µM) | 0.666 | 0.987 | 0.929 | 0.909 | 0.169 | 0.944 | 0.848 | 0.82 | 0.943 | 0.914 | 0.826 | 0.967 |  | 
10 | C[C@@H](Oc1cc(-c2cnn(C3CCNCC3)c2)cnc1N)c1c(Cl)ccc(F)c1Cl [Crizotinib] + Cn1cnc2c(F)c(Nc3ccc(Br)cc3Cl)c(C(=O)NOCCO)cc21 [Selumetinib] (first compound max 10 µM, 7x7, partner max 10 µM) | 0.456 | 0.773 | 0.54 | 0.989 | 0.0881 | 0.381 | 0.646 | 0.725 | 0.974 | 0.37 | 0.7 | 0.62 |  | 
11 | CS(=O)(=O)CCNCc1ccc(-c2ccc3ncnc(Nc4ccc(OCc5cccc(F)c5)c(Cl)c4)c3c2)o1 [Lapatinib] + Cn1cnc2c(F)c(Nc3ccc(Br)cc3Cl)c(C(=O)NOCCO)cc21 [Selumetinib] (first compound max 10 µM, 7x7, partner max 10 µM) | 0.369 | 0.705 | 0.644 | 0.557 | 0.83 | 0.317 | 0.342 | 0.801 | 0.887 | 0.42 | 0.655 | 0.677 |  | 
12 | CS(=O)(=O)CCNCc1ccc(-c2ccc3ncnc(Nc4ccc(OCc5cccc(F)c5)c(Cl)c4)c3c2)o1 [Lapatinib] + NC1(c2ccc(-c3nc4ccn5c(=O)[nH]nc5c4cc3-c3ccccc3)cc2)CCC1 [MK-2206] (first compound max 10 µM, 7x7, partner max 10 µM) | 0.911 | 0.96 | 0.862 | 0.964 | 0.892 | 0.602 | 0.403 | 0.893 | 0.971 | 0.152 | 0.787 | 0.629 | 0.515 | 0.941
13 | O=C(c1cc(Cc2n[nH]c(=O)c3ccccc23)ccc1F)N1CCN(C(=O)C2CC2)CC1 [Olaparib] + CC1(C)CCC(CN2CCN(c3ccc(C(=O)NS(=O)(=O)c4ccc(NCC5CCOCC5)c([N+](=O)[O-])c4)c(Oc4cnc5[nH]ccc5c4)c3)CC2)=C(c2ccc(Cl)cc2)C1 [Venetoclax] (first compound max 10 µM, 7x7, partner max 1 µM) | 0.0965 | 0.467 | 0.0955 | 0.607 | 0.154 | 0.114 | 0.0863 | 0.0844 | 0.315 | 0.0498 | 0.0569 | 0.191 |  | 
14 | O=C(c1cc(Cc2n[nH]c(=O)c3ccccc23)ccc1F)N1CCN(C(=O)C2CC2)CC1 [Olaparib] + CN(CC[C@H](CSC1=CC=CC=C1)NC2=C(C=C(C=C2)S(=O)(=O)NC(=O)C3=CC=C(C=C3)N4CCC(CC4)[C@H](C5=CC=CC=C5C6=CC=C(C=C6)Cl)O)S(=O)(=O)C(F)(F)F)CCO [AZD4320] (first compound max 10 µM, 7x7, partner max 1 µM) | 0.168 | 0.787 | 0.223 | 0.691 | 0.587 | 0.265 | 0.2 | 0.193 | 0.983 | 0.138 | 0.182 | 0.512 |  | 
15 | O=C(c1cc(Cc2n[nH]c(=O)c3ccccc23)ccc1F)N1CCN(C(=O)C2CC2)CC1 [Olaparib] + COc1nnc2ccc(N3CCC(c4ccc(OCCN5CCN(C)C(=O)[C@H]5C)cc4)CC3)nn12 [AZD5153] (first compound max 10 µM, 7x7, partner max 1 µM) | 0.357 | 0.695 | 0.448 | 0.769 | 0.156 | 0.379 | 0.582 | 0.456 | 0.648 | 0.393 | 0.449 | 0.359 |  | 
16 | Cc1nc(-c2cn3c(n2)-c2ccc(-c4cnn(C(C)(C)C(N)=O)c4)cc2OCC3)n(C(C)C)n1 [Taselisib] + O=C(Nc1ccc2[nH]nc(-c3ccncc3)c2c1)[C@@H]1CCN(CC(=O)N2CCN(c3ccc(-c4ncccn4)cc3)CC2)C1 [SCH772984] (first compound max 10 µM, 7x7, partner max 5 µM) | 0.66 | 0.923 | 0.78 | 0.82 | 0.408 | 0.422 | 0.677 | 0.839 | 0.373 | 0.688 | 0.846 | 0.889 |  | 
17 | CC1(C)CCC(CN2CCN(c3ccc(C(=O)NS(=O)(=O)c4ccc(NCC5CCOCC5)c([N+](=O)[O-])c4)c(Oc4cnc5[nH]ccc5c4)c3)CC2)=C(c2ccc(Cl)cc2)C1 [Venetoclax] + CS(=O)(=O)CCNCc1ccc(-c2ccc3ncnc(Nc4ccc(OCc5cccc(F)c5)c(Cl)c4)c3c2)o1 [Lapatinib] (first compound max 1 µM, 7x7, partner max 10 µM) | 0.208 | 0.669 | 0.284 | 0.399 | 0.758 | 0.18 | 0.089 | 0.397 | 0.854 | 0.136 | 0.308 | 0.267 |  | 
